Measured values taken from publication PMC8070004, “Isorhamnetin Ameliorates Dry Eye Disease via CFTR Activation in Mice” (International Journal of Molecular Sciences, 2021).

What was measured:
[1] = test system: CD-1 mice; experiment: Tear volume by phenol red thread tear test in normal CD-1 mice; format: in vivo, mouse; conditions: single 2.5 μL ocular delivery, 30 µM isorhamnetin
Protocol: (§1) Tear volume was measured using phenol red threads (Zone-Quick, Oasis Medical, Glendora, CA, USA) by placing them in the lateral canthi of normal CD-1 or dry eye model-treated BL6 mice for 10 s using forceps. Tear volume was measured using a Vernier caliper as the length of thread wetting under a microscope. For normal CD-1 mice, serial measurements were done to evaluate compound pharmacodynamics compared to the vehicle after topical application of a single, 2.5-μL drop of compound formulations containing 20 μM forskolin, 30 μM isorhamnetin, or 20 μM CFTRinh-172 in PBS with 0.1% DMSO.

[2] = molecular target: T1, CFTR (Mus musculus, UniProt P26361); experiment: Open-circuit ocular surface potential difference (PD) in CD-1 mice; format: in vivo; conditions: 30 μM isorhamnetin, amiloride and low Cl- perfusion
T1 construct: from tissue; host or cells: ocular surface of anesthetized CD-1 mice (in vivo)

[3] = test system: intracellular cAMP; experiment: cAMP assay in FRT cells; format: cell-based, rat; conditions: 30 µM
Protocol: FRT cells grown on 96-well culture plates were washed three times with PBS at 37 °C and then incubated in induction buffer from a cAMP assay kit (cAMP-Glo Assay; Promega, Madison, WI, USA) at 37 °C containing 100 μM 3-isobutyl-1-methylxanthine (IBMX) for 10 min in the absence or presence of forskolin or isorhamnetin. Cytosolic cAMP was measured using the kit according to the manufacturer’s protocol.

[4] = test system: scopolamine-induced dry eye mice; experiment: Scopolamine-induced dry eye mouse model (corneal fluorescein staining, tear volume); format: in vivo; conditions: 30 µM, three times a day for 10 days
Protocol: as §1
To assess corneal epithelial disruption, 5 μL of fluorescein dye (1%) were applied to the ocular surface of mice. Photographs of the eye were taken with a digital camera. Each cornea was scored from 0 to 5 according to the Oxford scheme.
Eight-week-old C57BL/6 mice were used for this experiment. Experimental dry eye was induced by subcutaneous injection of 0.5 mg/100 μL scopolamine hydrobromide (Sigma-Aldrich, St. Louis, MO, USA) three times a day with a standard desiccating environment created by placing the mice in a chamber with a continuous air flow (15 L/min) in a room at 25 °C with an ambient humidity of 12%. […]

[5] = molecular target: T2, human ANO1 (Homo sapiens, UniProt Q5XXA6); experiment: Apical membrane current in FRT cells expressing human ANO1; format: cell-based; conditions: 30 μM added 10 min prior to ANO1 activation by 100 μM ATP
T2 construct: expressed in transfected cells; host or cells: FRT cells (FRT-ANO1)
T2 sequence (Q5XXA6 1-986): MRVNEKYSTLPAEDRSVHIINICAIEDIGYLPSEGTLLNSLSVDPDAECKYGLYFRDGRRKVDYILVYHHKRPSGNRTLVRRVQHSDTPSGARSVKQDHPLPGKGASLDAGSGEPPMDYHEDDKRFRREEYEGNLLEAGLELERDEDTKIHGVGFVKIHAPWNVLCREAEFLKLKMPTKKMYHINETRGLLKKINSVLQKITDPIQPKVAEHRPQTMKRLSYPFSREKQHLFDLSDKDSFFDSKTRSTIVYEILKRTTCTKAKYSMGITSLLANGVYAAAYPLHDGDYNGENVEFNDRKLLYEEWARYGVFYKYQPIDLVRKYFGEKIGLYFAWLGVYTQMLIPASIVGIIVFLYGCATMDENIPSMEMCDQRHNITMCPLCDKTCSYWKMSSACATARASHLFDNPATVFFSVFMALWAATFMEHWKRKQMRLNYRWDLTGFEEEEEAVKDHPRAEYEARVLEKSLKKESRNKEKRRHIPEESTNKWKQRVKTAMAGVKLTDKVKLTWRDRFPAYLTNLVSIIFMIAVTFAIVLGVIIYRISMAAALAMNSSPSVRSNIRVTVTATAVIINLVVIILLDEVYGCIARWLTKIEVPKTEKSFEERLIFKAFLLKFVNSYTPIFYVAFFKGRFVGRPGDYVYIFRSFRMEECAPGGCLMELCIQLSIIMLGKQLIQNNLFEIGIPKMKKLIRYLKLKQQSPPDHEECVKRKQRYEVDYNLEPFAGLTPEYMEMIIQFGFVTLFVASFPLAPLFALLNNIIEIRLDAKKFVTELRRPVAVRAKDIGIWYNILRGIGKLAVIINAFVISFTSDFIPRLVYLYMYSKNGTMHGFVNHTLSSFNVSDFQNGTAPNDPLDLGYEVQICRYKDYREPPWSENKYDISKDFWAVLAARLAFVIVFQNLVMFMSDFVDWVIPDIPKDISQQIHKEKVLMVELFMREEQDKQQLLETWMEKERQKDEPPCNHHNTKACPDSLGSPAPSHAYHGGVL

[6] = test system: corneal epithelial (CorE) cells; experiment: MTS cell viability assay in CorE cells; format: cell-based, human; conditions: 48 h; isorhamnetin 30 μM, Triton X-100 0.01%
Protocol: Immortalized human CorE [47] and immortalized human ConjE (Innoprot, Bizkaia, Spain) cells were plated on 96-well microplates. After 24 h incubation, cells were treated with 30 μM isorhamnetin or 0.01% Triton X-100 and then they were incubated for two days. An equal amount of DMSO was added to the control. The culture medium and the compounds were changed every 12 h. To assess cell proliferation, after 48 h of incubation with the compound, the cells were reincubated with MTS for 1 h. The soluble formazan produced by cellular reduction of MTS was quantified by measuring the absorbance at 490 nm with Infinite M200 (Tecan, Grödig, Austria) microplate reader. MTS assay was done using CellTiter 96 AQueous One Solution Cell Proliferation Assay kit (Promega, Madison, WI, USA).

[7] = molecular target: T3, hERG potassium channel (Homo sapiens, UniProt Q12809); experiment: FluxOR potassium ion channel assay in HEK293T cells expressing hERG; format: cell-based; conditions: 30 μM pretreated for 10 min
T3 construct: expressed in transfected cells; host or cells: HEK293 / HEK293T
Protocol: HEK293 cells stably expressing human Kv11.1 (hERG) were plated in 96-well plates. After 48 h, the cells were incubated at 28 °C for 4 h to enhance membrane expression of hERG. The culture medium was replaced with 80 μL/well of FluxOR (Invitrogen) loading buffer and incubated for 1 h at 37 °C in the dark. After removal of the loading buffer, 100 µL of assay buffer were added to each well. To measure the effect of isorhamnetin on hERG channels, the cells were pretreated with isorhamnetin for 10 min. FluxOR fluorescence (excitation/emission: 490/525 nm) was recorded for 4 s before addition of 20 μL of stimulus buffer containing thallium ions, and the fluorescence was monitored. FluxOR fluorescence was recorded and analyzed using FLUOstar Omega Microplate Reader (BMG Labtech) and MARS Data Analysis Software (BMG Labtech). All buffers were prepared according to the manufacturer’s instructions.

T1 sequence (P26361 whole entry, the tested form may be a part): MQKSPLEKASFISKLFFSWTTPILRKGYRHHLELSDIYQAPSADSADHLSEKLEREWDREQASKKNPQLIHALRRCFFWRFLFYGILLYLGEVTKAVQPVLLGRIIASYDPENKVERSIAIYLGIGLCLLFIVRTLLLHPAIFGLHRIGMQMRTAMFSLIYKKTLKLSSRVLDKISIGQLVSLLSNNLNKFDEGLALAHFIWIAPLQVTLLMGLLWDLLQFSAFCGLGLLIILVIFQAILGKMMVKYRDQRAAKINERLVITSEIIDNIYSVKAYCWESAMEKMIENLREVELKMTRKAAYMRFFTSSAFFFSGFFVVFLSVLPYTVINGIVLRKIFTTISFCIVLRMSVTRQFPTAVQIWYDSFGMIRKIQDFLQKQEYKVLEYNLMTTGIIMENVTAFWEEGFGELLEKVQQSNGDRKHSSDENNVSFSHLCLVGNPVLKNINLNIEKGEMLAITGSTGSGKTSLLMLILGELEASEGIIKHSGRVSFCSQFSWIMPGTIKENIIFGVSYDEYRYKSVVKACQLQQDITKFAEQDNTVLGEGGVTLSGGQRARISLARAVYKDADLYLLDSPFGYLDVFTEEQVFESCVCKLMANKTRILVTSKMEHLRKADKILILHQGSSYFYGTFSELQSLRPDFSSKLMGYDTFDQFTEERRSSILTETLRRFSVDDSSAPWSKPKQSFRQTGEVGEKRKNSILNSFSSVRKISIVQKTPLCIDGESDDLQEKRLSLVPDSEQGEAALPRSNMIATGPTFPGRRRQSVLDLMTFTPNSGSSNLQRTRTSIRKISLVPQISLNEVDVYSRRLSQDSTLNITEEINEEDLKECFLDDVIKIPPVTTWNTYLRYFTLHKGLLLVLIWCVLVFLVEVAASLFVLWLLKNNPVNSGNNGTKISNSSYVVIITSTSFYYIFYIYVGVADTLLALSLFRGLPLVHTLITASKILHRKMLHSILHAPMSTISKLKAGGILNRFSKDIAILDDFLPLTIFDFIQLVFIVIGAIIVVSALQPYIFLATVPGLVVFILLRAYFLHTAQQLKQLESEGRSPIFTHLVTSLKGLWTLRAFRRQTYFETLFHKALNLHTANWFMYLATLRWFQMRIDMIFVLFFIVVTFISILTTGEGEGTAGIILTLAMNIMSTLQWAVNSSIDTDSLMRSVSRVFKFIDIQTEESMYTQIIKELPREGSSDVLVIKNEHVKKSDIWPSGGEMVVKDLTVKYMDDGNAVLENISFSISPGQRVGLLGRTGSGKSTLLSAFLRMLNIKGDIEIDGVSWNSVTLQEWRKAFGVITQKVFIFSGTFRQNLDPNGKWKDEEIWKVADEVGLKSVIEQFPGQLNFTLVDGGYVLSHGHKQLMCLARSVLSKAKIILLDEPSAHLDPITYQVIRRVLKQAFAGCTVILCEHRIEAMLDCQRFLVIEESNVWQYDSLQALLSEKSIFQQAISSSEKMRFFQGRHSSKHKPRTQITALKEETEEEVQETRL
T3 sequence (Q12809 whole entry): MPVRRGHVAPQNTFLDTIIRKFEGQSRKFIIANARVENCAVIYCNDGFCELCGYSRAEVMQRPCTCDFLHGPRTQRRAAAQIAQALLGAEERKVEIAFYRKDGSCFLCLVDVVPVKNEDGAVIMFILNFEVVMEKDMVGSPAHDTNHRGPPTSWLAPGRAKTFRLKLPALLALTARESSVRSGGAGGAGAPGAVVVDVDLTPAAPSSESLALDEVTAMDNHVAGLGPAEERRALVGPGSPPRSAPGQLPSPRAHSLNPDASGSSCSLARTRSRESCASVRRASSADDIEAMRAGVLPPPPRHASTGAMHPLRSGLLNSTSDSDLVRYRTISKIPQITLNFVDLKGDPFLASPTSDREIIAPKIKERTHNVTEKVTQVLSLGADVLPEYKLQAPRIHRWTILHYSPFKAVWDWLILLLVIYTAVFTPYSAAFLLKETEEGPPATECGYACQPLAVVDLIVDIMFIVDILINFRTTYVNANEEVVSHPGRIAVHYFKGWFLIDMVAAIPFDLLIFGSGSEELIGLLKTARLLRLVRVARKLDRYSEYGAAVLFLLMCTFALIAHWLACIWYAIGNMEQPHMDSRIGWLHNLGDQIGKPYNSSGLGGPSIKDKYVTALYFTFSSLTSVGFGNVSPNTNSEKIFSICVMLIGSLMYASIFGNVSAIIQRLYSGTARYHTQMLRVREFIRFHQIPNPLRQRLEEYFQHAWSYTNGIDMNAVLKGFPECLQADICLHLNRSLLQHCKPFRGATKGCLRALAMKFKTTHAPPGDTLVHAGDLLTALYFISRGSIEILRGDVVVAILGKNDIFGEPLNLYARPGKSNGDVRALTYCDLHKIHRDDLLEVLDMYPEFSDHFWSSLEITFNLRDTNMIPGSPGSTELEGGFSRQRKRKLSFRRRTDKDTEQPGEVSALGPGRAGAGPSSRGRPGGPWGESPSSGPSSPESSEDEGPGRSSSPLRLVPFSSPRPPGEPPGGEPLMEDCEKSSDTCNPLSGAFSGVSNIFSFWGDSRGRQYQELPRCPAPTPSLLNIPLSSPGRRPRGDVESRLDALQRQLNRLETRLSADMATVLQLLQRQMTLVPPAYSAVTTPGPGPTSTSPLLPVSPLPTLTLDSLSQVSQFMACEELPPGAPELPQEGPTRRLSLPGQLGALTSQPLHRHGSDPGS

COc1cc(-c2oc3cc(O)cc(O)c3c(=O)c2O)ccc1O [isorhamnetin] was tested, and the tear volume [1] was “significantly increased”, the “ocular surface PD” value [2] was “significantly hyperpolarized” and the “intracellular cAMP levels” value [3] was “did not alter”. For the same molecule, the “corneal erosion (fluorescein staining)” value [4] was “significantly reduced”, the “tear volume in dry eye mice” value [4] was “increased” and the “ANO1 function (apical membrane current)” value [5] was “did not alter”. For the same molecule, the “cell viability (MTS), CorE cells” value [6] was “did not affect the cell viability” and the hERG channel activity [7] was “did not affect”.
